Test results reported in patent US20240299429A1, “PREVENTIVE AND THERAPEUTIC AGENT FOR URINARY TRACT INFECTION CONTAINING 1-DEOXYMANNOSE” (SUNUS CO., LTD., priority 2022, published 2024).
Where two headings read alike, the source gives them in different places.

How the values were obtained:
Fim H lectin = Fim H lectin (Escherichia coli, UniProt P08191); conditions: read-out: dissociation constant (KD) against Fim H lectin (converted), cited from earlier work
[1] = Urine volume after oral administration; format: in vivo; conditions: 1 g oral, human, all points in time up to eight hours
Method: (§1) 1 g of 1-deoxymannose was dissolved in water to prepare a 20% w/w solution as a sample for oral administration. Urine was collected from six human subjects before administration of the sample. The total amount of sample was administered orally to each of the subjects, and the total amount of urine was collected one, two, three, four, six and eight hours after the administration. The urine collected at each of the points in time was subjected to volume measurement, and then filtered through a membrane filter with a pore size of 0.2 μm, followed by measurement of urinary 1-deoxymannose concentration by HPLC analysis.
Mannose, instead of 1-deoxymannose, was orally administered, followed by collection of urine, in the same manner as in Example 1.
In FIG. 2, the vertical axis indicates the percentage of the urine volume after administration of 1-deoxymannose in Example 1 relative to the urine volume after administration of mannose in Comparative Example 1 taken as 100%, at the respective points in time.

[2] = Urinary recovery rate after oral administration; format: in vivo; conditions: urine; 1 g oral, human, up to eight hours after administration
Method: as §1
The urinary recovery rate of 1-deoxymannose was determined by dividing the amount of recovered 1-deoxymannose, which was obtained from the collected urine volume and the urinary 1-deoxymannose concentration, by the dose. The urinary recovery rate is expressed by the following formula:
[formula] • Vn: Urine volume [ml] n hour (s) after administration • Cn: Urinary 1-deoxymannose concentration [mg/ml] n hour (s) after administration • M: Dose of 1-deoxymannose (=1000 mg)

[3] = Urinary concentration after oral administration to human subjects (HPLC); format: in vivo; conditions: 1 g oral
Method: HPLC devices: PU2089 plus, AS2055 plus and RI2031 plus (series number) manufactured by JASCO Corporation; MODEL 556 manufactured by GL Sciences Inc. • Columns: MITSUBISHI MCI GEL CK08S; two columns coupled together • Oven temperature: 60° C. • Eluent: Water • Detector: Differential refractometer • Flow rate: 1 ml/minute • Injection volume: 100 μL
The determination of 1-deoxymannose was carried out using a calibration curve produced by using the 1-deoxymannose prepared as above. The determination of mannose was carried out using a calibration curve produced by using special grade mannose as a reagent.
as §1
Mannose, instead of 1-deoxymannose, was orally administered, followed by collection of urine, in the same manner as in Example 1. […]

[4] = system: Escherichia coli (NBRC 3301); experiment: Utilization of sugars by Escherichia coli (turbidity in M9 minimal medium); format: cell-based; conditions: 1% sugar in M9 minimal medium, 37° C., compared with mannose and glucose
Method: In order to evaluate the utilization of 1-deoxymannose by Escherichia coli (NBRC 3301), the following experiment was conducted.
M9 minimal medium (obtained by adding MgSO4 and CaCl2 to Difco™ M9 Minimal Salt) containing 2 ml of 1% glucose was used. Escherichia coli (NBRC 3301) was subjected to shaking at 37° C. for 17 hours to prepare a culture solution. 10 μL of the culture solution was added to 2 ml of M9 minimal media containing 1%1-deoxymannose, 1% mannose, and 1% glucose, respectively, followed by shaking culture at 37° C. During culture, 100 μL of the culture solution was serially sampled and measured for its turbidity (600 nm) using a cell with an optical path length of 1 cm. The growth of Escherichia coli was evaluated based on increased turbidity. The results of the measurement are shown in FIG. 3, in which Example 2, Comparative Example 2, and Comparative Example 3 correspond to the culture solution containing 1-deoxymannose, the culture solution containing mannose, and the culture solution containing glucose, respectively.

Fim H lectin, sequence (P08191 22-300): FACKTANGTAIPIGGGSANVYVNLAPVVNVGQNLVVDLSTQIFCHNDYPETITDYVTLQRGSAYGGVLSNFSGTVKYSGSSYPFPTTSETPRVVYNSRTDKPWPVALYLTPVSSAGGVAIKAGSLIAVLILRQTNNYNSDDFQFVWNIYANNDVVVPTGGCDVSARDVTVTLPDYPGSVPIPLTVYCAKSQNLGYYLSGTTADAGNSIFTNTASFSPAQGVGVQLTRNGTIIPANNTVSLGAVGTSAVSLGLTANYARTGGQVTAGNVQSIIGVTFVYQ

**Q.** For `OC[C@H]1OC[C@@H](O)[C@@H](O)[C@@H]1O` [1-deoxymannose, 1,5-anhydro-D-mannitol], which Kd (Fim H lectin; expressed as mass concentration) is on record?
**A.** 1.13 µM

**Q.** And the Kd (Fim H lectin)?
**A.** 1.13 µM

**Q.** And the “urine volume versus mannose administration group” value [1]?
**A.** larger volume of urine

**Q.** And the dose excreted [2]?
**A.** 43.3 ± 9.03%

**Q.** And the highest urinary concentration ([3]; average of six subjects, two hours after administration)?
**A.** 2.12 mg/mL

**Q.** What about the detection in urine ([3]; six subjects, urine collected one to eight hours after administration, detection limit 0.1 mg/ml) of the same compound?
**A.** detected

**Q.** And the “turbidity (600 nm) of Escherichia coli culture, growth” value [4]?
**A.** did not have increased turbidity
